According to ChEMBL document CHEMBL5674860, “Optimized Dual-Glo Assay to identify co-culture-induced drug vulnerabilities in 3D CRC models” (2024):

Assays:
Type in all cases: functional, Homo sapiens
Parameters in all cases: dose or concentration left out as unconfirmed
Colon cancer organoid [1] = assay: Optimized Dual-Glo assay to identify co-culture induced drug vulnerabilities using donated chemical probes and chemogenomics kinase set in O14 CRC organoid and F14 CAF mono and co-culture. […] Cell viability is reported both mono and co-culture models.
Colon cancer organoid [2] = assay: Optimized Dual-Glo assay to identify co-culture induced drug vulnerabilities using donated chemical probes and chemogenomics kinase set in O06 CRC organoid and F06 CAF mono and co-culture. […] Cell viability is reported both mono and co-culture models.
Colon cancer organoid [3] = assay: Optimized Dual-Glo assay to identify co-culture induced drug vulnerabilities using donated chemical probes and chemogenomics kinase set in O20 CRC organoid and F20 CAF mono and co-culture. […] Cell viability is reported both mono and co-culture models.
[4] = Culture type Co-Culture, Transduced with Lucferase2-P2A-EGFP lentivirus
[5] = Culture type Co-Culture, Transduced with Renilla-dsRed lentivirus
[6] = Culture type Mono-Culture, Transduced with Lucferase2-P2A-EGFP lentivirus
[7] = Culture type Mono-Culture, Transduced with Renilla-dsRed lentivirus

Row | SMILES | Cell Viability (Colon cancer organoid [1]; [4]) | Cell Viability (Colon cancer organoid [1]; [5]) | Cell Viability (Colon cancer organoid [1]; [6]) | Cell Viability (Colon cancer organoid [1]; [7]) | Cell Viability (Colon cancer organoid [2]; [4]) | Cell Viability (Colon cancer organoid [2]; [5]) | Cell Viability (Colon cancer organoid [2]; [6]) | Cell Viability (Colon cancer organoid [2]; [7]) | Cell Viability (Colon cancer organoid [3]; [4]) | Cell Viability (Colon cancer organoid [3]; [5]) | Cell Viability (Colon cancer organoid [3]; [6]) | Cell Viability (Colon cancer organoid [3]; [7])
1 | CO[C@@H](C)c1c(Nc2ccc([C@@H](N(C)C(=O)C3CCS(=O)(=O)CC3)C(F)(F)F)cc2)cnc2cc(Cl)nn12 [NVS-MALT1-C] | 62.8563% | 80.6398% | 85.3196% | 104.147% | 50.6957% | 73.6522% | 67.3669% | 85.1011% | 83.6241% | 108.215% | 61.6775% | 90.6676%
2 | CO[C@@H](C)c1c(Nc2ccc([C@H](N(C)C(=O)C3CCS(=O)(=O)CC3)C(F)(F)F)cc2)cnc2cc(Cl)nn12 [NVS-MALT1] | 62.6088% | 105.477% | 102.315% | 101.932% | 54.3511% | 83.5282% | 80.0936% | 98.6896% | 87.8486% | 98.697% | 70.7423% | 82.2292%
3 | COc1ncc(-c2ccc3nccc(-c4ccnnc4)c3c2)cc1NS(=O)(=O)c1ccc(F)cc1F [OMIPALISIB] | 1.562% | 61.2077% | 2.831% | 44.5325% | 2.362% | 34.7423% | 3.227% | 27.5983% | 2.277% | 94.8256% | 1.422% | 74.6652%
4 | CN1CCN(c2ccc(OC(F)(F)F)c(Nc3ncc4c(n3)-c3c(c(C(N)=O)nn3CCO)CC4)c2)CC1 [ONVANSERTIB] | 3.512% | 162.986% | 6.811% | 81.4434% | 2.834% | 160.245% | 4.275% | 93.5315% | 2% | 184.086% | 2.415% | 100.341%
5 | Nc1nc(NCc2ccccc2)nc(-c2ccccc2CO)n1 [Ogerin] | 77.8704% | 129.106% | 105.546% | 105.714% | 100.001% | 107.856% | 82.0596% | 96.3715% | 80.9307% | 98.0569% | 82.507% | 92.5232%
6 | CC(=O)NCC(=O)N1[C@@H]2CC[C@H]1c1ccc(Nc3ncc(C(F)(F)F)c(NC4CCC4)n3)cc12 [PF-03814735] | 21.4424% | 92.7993% | 23.2786% | 69.2613% | 12.5382% | 132.747% | 7.137% | 42.3421% | 4.585% | 155.761% | 7.993% | 63.4074%
7 | OCCn1cc(-c2cnc3nnn(Cc4ccc5ncccc5c4)c3n2)cn1 [PF-04217903] | 71.8183% | 123.95% | 91.8486% | 91.0833% | 88.0795% | 107.387% | 104.073% | 94.3108% | 121.611% | 97.2338% | 113.154% | 101.829%
8 | C[C@H](c1ccc(F)cc1)N(Cc1cccc(C(=O)O)c1)C(=O)c1cnc2ccccc2c1 [PF-05105679] | 81.4426% | 118.111% | 74.3119% | 99.7573% | 133.625% | 152.049% | 106.722% | 91.4083% | 143.937% | 111.508% | 109.64% | 98.1235%
9 | C[C@H](c1ccc(F)cc1)N(Cc1ccc(Cl)c(C(=O)O)c1)C(=O)c1cnc2ccccc2c1 [PF-05257137] | 77.6621% | 111.229% | 120.37% | 101.269% | 116.801% | 128.047% | 124.519% | 88.8687% | 147.232% | 103.742% | 109.057% | 106.822%
10 | COc1ncc(F)cc1CNc1ccc(Cc2c[nH]c3ncc(C)cc23)c(F)n1 [PLX-5622] | 95.8839% | 46.3569% | 130.226% | 44.2586% | 82.7626% | 63.3822% | 93.414% | 61.0678% | 205.726% | 55.6932% | 133.198% | 66.7491%
11 | Cc1noc(C)c1-c1cnc2c(-c3ccc(C(=O)O)cc3)cn([C@@H](C)c3ccccn3)c2c1 [PLX-51107] | 32.5617% | 348.195% | 30.1969% | 207.472% | 26.8486% | 312.702% | 23.3668% | 265.011% | 17.6563% | 177.825% | 24.073% | 120.563%
12 | Cn1cc(CNCC2CCN(c3ncc(C(=O)NO)cn3)CC2)c2ccccc21 [QUISINOSTAT] | 0.9193% | 88.4975% | 0.7655% | 72.0368% | 1.095% | 190.694% | 6.147% | 20.2291% | 1.342% | 37.1921% | 2.078% | 3.907%
13 | CC(C)(C)c1cc(NC(=O)Nc2ccc(-c3cn4c(n3)sc3cc(OCCN5CCOCC5)ccc34)cc2)no1 [QUIZARTINIB] | 40.6861% | 210.95% | 46.4384% | 89.2922% | 26.1053% | 134.448% | 20.7828% | 88.706% | 58.7644% | 111.29% | 48.0043% | 98.7475%
14 | CN(C)C(=O)c1cc2cnc(Nc3ccc(N4CCNCC4)cn3)nc2n1C1CCCC1 [RIBOCICLIB] | 59.6816% | 144.098% | 62.61% | 96.4403% | 54.2961% | 126.231% | 30.4641% | 111.56% | 36.9577% | 144.514% | 20.5669% | 95.5583%
